Structures can show the parent of a compound that is named as a salt.
| melting point | Structure (SMILES) |
| --- | --- |
| 153 °C | CC(c1nc2ccccc2c(=O)n1-c1ccc(F)cc1)N(CCN(C)C)C(=O)Cc1ccccc1 (stereo not drawn) |
| 98.1 °C | CCOCCN(C(=O)Cc1ccc(-c2ccccc2)cc1)C(C)c1nc2ccccc2c(=O)n1-c1ccc(OCC)cc1 (stereo not drawn) |
| 220 to 221 °C | CC(=O)CN(C(=O)Cc1ccc(C(F)(F)F)cc1)[C@H](C)c1nc2ccccc2c(=O)n1-c1ccc(F)cc1 [Compound 3.22] |
| 73.3 °C | C#Cc1ccc(-n2c(C(C)N(CCOC)C(=O)Cc3ccc(-c4ccccc4)cc3)nc3ccccc3c2=O)cc1 (stereo not drawn) [Compound 3.12, 2-((N-2-Methoxyethyl)-N-(4-phenylphenylacetyl)-1-aminoethyl)-3-(4-ethynylphenyl) -3H-quinazoline-4-one] |
| 96.9 °C | COc1ccc(-n2c(C(C)N(CCN3CCCC3)C(=O)Cc3ccc(-c4ccccc4)cc3)nc3ccccc3c2=O)cc1F (stereo not drawn) [Compound 1.33] |
| 156.2 °C | C[C@H](c1nc2ccccc2c(=O)n1-c1ccc(F)cc1)N(CCOCC(F)(F)F)C(=O)Cc1ccc(C(F)(F)F)cc1 [Compound 9.04] |
| 173 to 174 °C | C[C@H](c1nc2ccccc2c(=O)n1-c1ccc(F)cc1)N(Cc1nccs1)C(=O)Cc1ccc(C(F)(F)F)cc1 |
| 75.5 °C | CCOc1ccc(-n2c(C(C)N(Cc3cccnc3)C(=O)Cc3ccc(F)c(F)c3)nc3ccccc3c2=O)cc1 (stereo not drawn) [Compound 3.34] |
| 137 to 138 °C | CCOCCN(C(=O)Cc1ccc(F)c(C(F)(F)F)c1)[C@H](C)c1nc2ccccc2c(=O)n1-c1ccc(OCC)cc1 [Compound 3.26] |
| 167 °C | CC(c1nc2ccccc2c(=O)n1-c1ccc(F)cc1)N(Cc1cccnc1)C(=O)Cc1ccc(C(F)(F)F)cc1 (racemic) |
| 167.5 °C | CCOc1ccc(-n2c(C(C)N(Cc3ccccn3)C(=O)Cc3ccc(C(F)(F)F)cc3)nc3ccccc3c2=O)cc1 (stereo not drawn) (as salt: hydrochloride) [Compound 3.04, 2-((N-2-Picolyl)-N-(4-trifluoromethylphenylacetyl)-1-aminoethyl)-3-(4-ethoxyphenyl) -3H-quinazoline-4-one] |
| 146 to 148 °C | CCOCCN(C(=O)Cc1ccc(C(F)(F)F)c(F)c1)[C@H](C)c1nc2ccccc2c(=O)n1-c1ccc(OCC)cc1 [Compound 3.27] |
| 57 to 60 °C | CCOCCN(C(=O)Cc1cc(C(F)(F)F)cc(C(F)(F)F)c1)[C@H](C)c1nc2ccccc2c(=O)n1-c1ccc(OCC)cc1 [Compound 3.25] |
| 146.3 °C | CCOCCN(C(=O)Cc1ccc(F)c(F)c1F)C(C)c1nc2ccccc2c(=O)n1-c1ccc(OCC)cc1 (stereo not drawn) [Compound 3.32] |
| 150.6 °C | CCOCCN(C(=O)Cc1ccc(-c2ccccc2)cc1)C(C)c1nc2ccccc2c(=O)n1-c1ccc(F)cc1 (stereo not drawn) [Compound 1.19] |
| 157.9 °C | CCOCCN(C(=O)Cc1cccc(C(F)(F)F)c1)C(C)c1nc2ccccc2c(=O)n1-c1ccc(OCC)cc1 (stereo not drawn) [Compound 9.08] |
| 167.9 °C | C[C@H](c1nc2ccccc2c(=O)n1-c1ccc(F)cc1)N(CCOCC(F)(F)F)C(=O)Cc1ccc(-c2ccccc2)cc1 [Compound 9.03] |
| 103 to 104 °C | CCOc1ccc(-n2c([C@@H](C)N(Cc3cccnc3)C(=O)Cc3ccc(OCC(F)(F)F)cc3)nc3ccccc3c2=O)cc1 [Compound 3.28] |
| 153 °C | CCOCCN(C(=O)Cc1ccc(OC(F)(F)F)cc1)C(C)c1nc2ccccc2c(=O)n1-c1ccc(OCC)cc1 (stereo not drawn) [Compound 3.30] |
| 116.3 °C | COc1ccc(-n2c(C(C)N(CCN3CCCC3)C(=O)Cc3ccc(-c4ccccc4)cc3)nc3ccccc3c2=O)cc1 (stereo not drawn) [Compound 1.34] |
| 61.3 °C | COc1ccc(-n2c(C(C)N(CCN(C)C)C(=O)Cc3ccc(OCc4ccccc4)cc3)nc3ccccc3c2=O)cc1 (stereo not drawn) [Compound 1.36] |
| 153.8 °C | COCCN(C(=O)Cc1ccc(-c2ccccc2)cc1)C(C)c1nc2ccccc2c(=O)n1-c1ccc(F)cc1 (stereo not drawn) [Compound 1.17] |
| 188.3 °C | Cc1ccc(CC(=O)N(CCN(C)C)C(C)c2nc3ccccc3c(=O)n2-c2ccc(F)cc2)cc1 (stereo not drawn) |
| 147.3 °C | CC(c1nc2ccccc2c(=O)n1-c1ccc(F)cc1)N(CCN(C)C)C(=O)c1ccc(-c2ccccc2)cc1 (stereo not drawn) [Compound 1.06] |

Reference: patent US6794379B2, “CXCR3 antagonists” (Tularik Inc., priority 2001, dated 2004)
